From ChEMBL document CHEMBL5370593, “Discovery and In Vitro Characterization of SPL028: Deuterated N,N-Dimethyltryptamine” (ACS Med Chem Lett, 2023)

What was measured:
Type in all cases: cell-based
[1] = molecular target: 5-hydroxytryptamine receptor 2B (Homo sapiens) (UniProt P41595); assay: Displacement of [3H] LSD from human recombinant 5-HT2B receptor expressed in CHO-K1 cells at 10 uM incubated for 60 mins by spectrophotometric analysis relative to control
[2] = molecular target: 5-hydroxytryptamine receptor 1B (Homo sapiens, UniProt P28222); assay: Displacement of [3H] GR125743 from human recombinant 5-HT1B receptor expressed in […] cells at 10 uM incubated for 90 mins by spectrophotometric analysis relative to control
Chain of 5-hydroxytryptamine receptor 1B (P28222 whole entry): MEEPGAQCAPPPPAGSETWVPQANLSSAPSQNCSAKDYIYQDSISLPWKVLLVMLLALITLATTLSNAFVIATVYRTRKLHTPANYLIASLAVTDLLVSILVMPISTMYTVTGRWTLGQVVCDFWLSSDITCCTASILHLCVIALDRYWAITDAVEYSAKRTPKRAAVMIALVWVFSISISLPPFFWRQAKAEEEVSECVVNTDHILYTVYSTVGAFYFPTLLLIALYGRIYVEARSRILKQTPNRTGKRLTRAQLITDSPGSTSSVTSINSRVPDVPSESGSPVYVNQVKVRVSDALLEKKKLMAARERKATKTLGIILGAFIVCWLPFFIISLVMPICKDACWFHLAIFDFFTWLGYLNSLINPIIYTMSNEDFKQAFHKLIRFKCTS

[3] = molecular target: 5-hydroxytryptamine receptor 6 (Homo sapiens, UniProt P50406); assay: Displacement of [3H] LSD from human recombinant 5-HT6 receptor expressed in human HeLa cells at 10 uM incubated for 120 mins by spectrophotometric analysis relative to control
Chain of 5-hydroxytryptamine receptor 6 (P50406 whole entry): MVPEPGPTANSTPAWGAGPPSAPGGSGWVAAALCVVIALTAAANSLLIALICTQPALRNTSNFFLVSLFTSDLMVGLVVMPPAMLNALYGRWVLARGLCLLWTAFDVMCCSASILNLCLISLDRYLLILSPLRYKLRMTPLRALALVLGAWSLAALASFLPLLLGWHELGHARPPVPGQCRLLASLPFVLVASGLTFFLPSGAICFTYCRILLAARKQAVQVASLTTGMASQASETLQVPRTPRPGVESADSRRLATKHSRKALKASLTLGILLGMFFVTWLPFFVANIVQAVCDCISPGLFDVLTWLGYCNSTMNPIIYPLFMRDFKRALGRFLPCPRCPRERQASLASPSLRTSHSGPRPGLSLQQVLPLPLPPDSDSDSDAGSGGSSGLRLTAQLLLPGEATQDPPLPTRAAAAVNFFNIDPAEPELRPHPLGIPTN

[4] = molecular target: 5-hydroxytryptamine receptor 5A (Homo sapiens, UniProt P47898); assay: Displacement of [3H] LSD from human recombinant 5-HT5A receptor expressed in CHO-K1 cells at 10 uM incubated for 60 mins by spectrophotometric analysis relative to control
Chain of 5-hydroxytryptamine receptor 5A (P47898 whole entry): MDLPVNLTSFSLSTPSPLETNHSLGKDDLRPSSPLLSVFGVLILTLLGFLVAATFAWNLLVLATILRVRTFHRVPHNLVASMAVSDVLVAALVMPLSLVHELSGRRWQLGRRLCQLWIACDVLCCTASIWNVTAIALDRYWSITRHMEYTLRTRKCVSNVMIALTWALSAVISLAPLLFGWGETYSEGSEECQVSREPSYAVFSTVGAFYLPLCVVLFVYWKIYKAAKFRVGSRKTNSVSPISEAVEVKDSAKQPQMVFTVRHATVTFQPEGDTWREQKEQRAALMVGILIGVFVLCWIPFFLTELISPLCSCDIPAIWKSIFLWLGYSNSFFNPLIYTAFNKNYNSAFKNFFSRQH

[5] = molecular target: 5-hydroxytryptamine receptor 1A (Homo sapiens) (UniProt P08908); assay: Displacement of [3H] 8-OH-DPAT from human recombinant 5-HT1A receptor expressed in CHO-K1 cells at 10 uM incubated for 60 mins by spectrophotometric analysis relative to control
Chain of 5-hydroxytryptamine receptor 1A (Homo sapiens) (P08908 whole entry): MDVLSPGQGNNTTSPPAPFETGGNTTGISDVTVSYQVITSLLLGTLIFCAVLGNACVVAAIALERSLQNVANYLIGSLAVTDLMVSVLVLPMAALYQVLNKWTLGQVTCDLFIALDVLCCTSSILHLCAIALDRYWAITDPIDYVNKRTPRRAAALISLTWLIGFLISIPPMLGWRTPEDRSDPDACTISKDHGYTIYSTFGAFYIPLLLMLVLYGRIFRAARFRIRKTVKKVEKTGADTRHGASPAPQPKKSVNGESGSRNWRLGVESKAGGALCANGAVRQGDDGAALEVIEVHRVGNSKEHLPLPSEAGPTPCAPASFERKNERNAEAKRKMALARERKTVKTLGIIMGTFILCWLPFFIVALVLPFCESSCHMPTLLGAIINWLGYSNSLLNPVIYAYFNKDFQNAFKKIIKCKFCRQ

[6] = molecular target: Alpha-2A adrenergic receptor (Homo sapiens) (UniProt P08913); assay: Displacement of [3H]-rauwolscine from human recombinant adrenergic alpha-2A receptor expressed in CHO-K1 cells at 10 uM incubated for 60 mins by spectrophotometric analysis relative to control
Chain of Alpha-2A adrenergic receptor (Homo sapiens) (P08913 whole entry): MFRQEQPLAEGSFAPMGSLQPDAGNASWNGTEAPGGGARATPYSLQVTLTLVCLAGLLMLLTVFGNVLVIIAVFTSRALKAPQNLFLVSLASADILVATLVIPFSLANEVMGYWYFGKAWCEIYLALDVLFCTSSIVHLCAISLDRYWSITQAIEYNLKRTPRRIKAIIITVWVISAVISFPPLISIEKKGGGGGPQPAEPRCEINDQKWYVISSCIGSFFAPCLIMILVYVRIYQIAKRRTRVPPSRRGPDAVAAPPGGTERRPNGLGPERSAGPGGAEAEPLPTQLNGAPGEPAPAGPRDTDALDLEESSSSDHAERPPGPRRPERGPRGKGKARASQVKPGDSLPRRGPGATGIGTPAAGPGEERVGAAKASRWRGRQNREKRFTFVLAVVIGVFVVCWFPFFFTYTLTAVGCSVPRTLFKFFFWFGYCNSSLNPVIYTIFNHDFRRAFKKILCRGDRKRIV

[7] = molecular target: Sigma non-opioid intracellular receptor 1 (Homo sapiens) (UniProt Q99720); assay: Displacement of [3H] pentazocine from human sigma 1 receptor expressed in human Jurkat cells at 10 uM incubated for 120 mins by spectrophotometric analysis relative to control; conditions: tested as the 2H-labelled form
Chain of Sigma non-opioid intracellular receptor 1 (Homo sapiens) (Q99720 whole entry): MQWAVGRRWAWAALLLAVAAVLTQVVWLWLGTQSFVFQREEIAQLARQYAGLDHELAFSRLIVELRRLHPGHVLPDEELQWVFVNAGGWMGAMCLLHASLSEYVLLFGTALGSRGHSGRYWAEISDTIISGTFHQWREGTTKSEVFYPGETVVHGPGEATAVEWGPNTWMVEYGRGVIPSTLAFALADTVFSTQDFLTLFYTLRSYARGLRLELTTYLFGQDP

[8] = molecular target: Alpha-1B adrenergic receptor (Homo sapiens) (UniProt P35368); assay: Displacement of [3H] prazosin from human recombinant adrenergic alpha-1b receptor expressed in […] cells at 10 uM incubated for 60 mins by spectrophotometric analysis relative to control
Chain of Alpha-1B adrenergic receptor (Homo sapiens) (P35368 whole entry): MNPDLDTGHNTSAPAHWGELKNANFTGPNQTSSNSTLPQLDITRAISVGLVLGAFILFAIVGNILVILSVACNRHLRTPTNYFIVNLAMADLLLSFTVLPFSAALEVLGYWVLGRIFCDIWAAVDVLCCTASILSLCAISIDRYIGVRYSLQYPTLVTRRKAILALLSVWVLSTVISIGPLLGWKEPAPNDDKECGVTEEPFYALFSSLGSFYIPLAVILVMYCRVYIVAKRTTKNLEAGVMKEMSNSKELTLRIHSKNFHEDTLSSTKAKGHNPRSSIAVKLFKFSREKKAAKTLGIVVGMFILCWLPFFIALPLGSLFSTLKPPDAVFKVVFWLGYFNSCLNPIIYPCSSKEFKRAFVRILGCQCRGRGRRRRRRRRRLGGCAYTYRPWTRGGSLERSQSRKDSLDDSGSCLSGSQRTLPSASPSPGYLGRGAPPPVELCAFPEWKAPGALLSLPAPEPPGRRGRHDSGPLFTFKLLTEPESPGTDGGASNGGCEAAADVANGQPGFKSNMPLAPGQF

[9] = molecular target: Alpha-1A adrenergic receptor (Homo sapiens) (UniProt P35348); assay: Displacement of [3H] prazosin from human recombinant adrenergic alpha-1a receptor expressed in […] cells at 10 uM incubated for 60 mins by spectrophotometric analysis relative to control
Chain of Alpha-1A adrenergic receptor (Homo sapiens) (P35348 whole entry): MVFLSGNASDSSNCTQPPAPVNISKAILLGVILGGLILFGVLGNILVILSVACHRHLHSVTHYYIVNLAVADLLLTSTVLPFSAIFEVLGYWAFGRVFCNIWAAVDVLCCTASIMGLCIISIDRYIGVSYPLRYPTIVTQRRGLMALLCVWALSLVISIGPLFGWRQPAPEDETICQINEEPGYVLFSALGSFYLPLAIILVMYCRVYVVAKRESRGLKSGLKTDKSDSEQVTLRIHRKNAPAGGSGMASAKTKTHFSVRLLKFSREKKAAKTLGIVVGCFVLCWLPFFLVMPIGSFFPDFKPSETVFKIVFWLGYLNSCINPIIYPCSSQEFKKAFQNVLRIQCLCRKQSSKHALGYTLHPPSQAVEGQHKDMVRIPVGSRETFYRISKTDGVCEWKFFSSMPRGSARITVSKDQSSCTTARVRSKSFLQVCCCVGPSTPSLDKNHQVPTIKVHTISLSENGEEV

[10] = molecular target: Alpha-1D adrenergic receptor (Homo sapiens) (UniProt P25100); assay: Displacement of [3H] prazosin from human recombinant adrenergic alpha-1d receptor expressed in HEK293 cells at 10 uM incubated for 60 mins by spectrophotometric analysis relative to control
Chain of Alpha-1D adrenergic receptor (Homo sapiens) (P25100 whole entry): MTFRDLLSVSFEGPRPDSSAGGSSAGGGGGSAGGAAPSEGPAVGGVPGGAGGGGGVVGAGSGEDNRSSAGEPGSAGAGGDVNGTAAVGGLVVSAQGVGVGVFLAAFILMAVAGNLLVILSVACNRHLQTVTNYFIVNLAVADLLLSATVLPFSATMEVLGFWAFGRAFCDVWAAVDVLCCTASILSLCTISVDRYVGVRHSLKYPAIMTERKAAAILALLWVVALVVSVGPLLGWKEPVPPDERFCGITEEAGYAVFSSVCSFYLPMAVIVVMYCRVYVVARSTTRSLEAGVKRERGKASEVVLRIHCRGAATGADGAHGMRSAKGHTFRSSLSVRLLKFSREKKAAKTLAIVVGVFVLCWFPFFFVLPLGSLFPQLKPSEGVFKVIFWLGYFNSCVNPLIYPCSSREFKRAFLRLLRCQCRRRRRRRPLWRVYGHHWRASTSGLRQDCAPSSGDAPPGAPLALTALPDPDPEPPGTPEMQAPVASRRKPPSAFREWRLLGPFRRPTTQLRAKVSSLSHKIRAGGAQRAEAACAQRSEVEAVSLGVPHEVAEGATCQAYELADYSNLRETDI

[11] = molecular target: Histamine H1 receptor (Homo sapiens) (UniProt P35367); assay: Displacement of [3H] pyrilamine from human recombinant histamine H1 receptor expressed in CHO-K1 cells at 10 uM incubated for 180 mins by spectrophotometric analysis relative to control
Chain of Histamine H1 receptor (Homo sapiens) (P35367 whole entry): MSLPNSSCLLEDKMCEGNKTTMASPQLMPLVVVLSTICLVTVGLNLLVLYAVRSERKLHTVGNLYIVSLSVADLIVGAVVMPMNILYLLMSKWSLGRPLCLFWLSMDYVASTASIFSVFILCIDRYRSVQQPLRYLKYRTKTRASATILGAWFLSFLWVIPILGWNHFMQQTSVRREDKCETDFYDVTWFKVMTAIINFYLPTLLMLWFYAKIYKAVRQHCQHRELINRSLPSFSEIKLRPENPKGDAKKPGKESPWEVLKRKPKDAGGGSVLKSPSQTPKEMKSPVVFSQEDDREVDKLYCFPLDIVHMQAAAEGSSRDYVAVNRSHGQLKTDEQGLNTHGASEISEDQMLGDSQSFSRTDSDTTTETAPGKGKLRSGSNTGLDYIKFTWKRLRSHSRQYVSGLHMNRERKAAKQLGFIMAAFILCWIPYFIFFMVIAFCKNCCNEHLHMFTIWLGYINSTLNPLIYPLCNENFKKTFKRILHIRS

Chain of 5-hydroxytryptamine receptor 2B (Homo sapiens) (P41595 whole entry): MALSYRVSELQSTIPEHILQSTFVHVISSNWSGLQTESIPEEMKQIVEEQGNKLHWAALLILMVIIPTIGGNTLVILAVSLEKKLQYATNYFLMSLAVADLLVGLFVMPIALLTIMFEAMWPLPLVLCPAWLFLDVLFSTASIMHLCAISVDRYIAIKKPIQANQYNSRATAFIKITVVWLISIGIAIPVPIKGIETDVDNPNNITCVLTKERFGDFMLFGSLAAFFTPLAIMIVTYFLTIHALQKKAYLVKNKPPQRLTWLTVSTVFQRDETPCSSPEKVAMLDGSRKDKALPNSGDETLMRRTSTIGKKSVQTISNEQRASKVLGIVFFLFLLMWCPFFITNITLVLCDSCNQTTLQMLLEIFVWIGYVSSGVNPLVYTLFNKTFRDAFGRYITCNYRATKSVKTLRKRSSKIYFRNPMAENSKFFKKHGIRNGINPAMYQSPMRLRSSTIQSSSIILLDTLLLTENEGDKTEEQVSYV

CN(C)CCc1c[nH]c2ccccc12.O=C(O)/C=C/C(=O)O
inhibition [1]: 95.5%
inhibition ([1]; tested as the 2H-labelled form): 96.5%
inhibition [2]: 73.1%
inhibition ([2]; tested as the 2H-labelled form): 75.5%
inhibition [3]: 86.1%
inhibition ([3]; tested as the 2H-labelled form): 86.2%
inhibition [4]: 72.7%
inhibition ([4]; tested as the 2H-labelled form): 70.2%
inhibition [5]: 96%
inhibition ([5]; tested as the 2H-labelled form): 97.6%
inhibition [6]: 67.1%
inhibition ([6]; tested as the 2H-labelled form): 69.1%
inhibition [7]: 45%
inhibition [8]: 85.8%
inhibition ([8]; tested as the 2H-labelled form): 87.2%
inhibition [9]: 85.1%
inhibition ([9]; tested as the 2H-labelled form): 85.1%
inhibition [10]: 54.1%
inhibition ([10]; tested as the 2H-labelled form): 63.2%
inhibition [11]: 88.8%
inhibition ([11]; tested as the 2H-labelled form): 91.4%
